The subject of experiment [1] is RepA-LacZ (SLI-SLIII interaction of RepA mRNA), plasmid pMU1550. Nature of the experiment: RepA-LacZ reporter gene assay. The format is cell-based. The conditions noted are these: E. coli JP3923 harboring pMU1550, various concentrations, OD600 ~0.6. The procedure: Small molecules were tested for their ability to imitate the function of RNA I by binding to the RepA mRNA and disrupting the Stem Loop I-Stem Loop III (SLI-SLIII) loop-loop interaction, thus mimicking plasmid incompatibility. Aminoglycosides and their derivatives were selected for testing because of their ability to tightly bind RNA from a variety of sources, particularly regions of distorted RNA secondary structure, such as RNA loops or bulges.
To assess their ability to disrupt the SLI-SLIII interaction in vivo, small molecules were assessed using a RepA-LacZ reporter gene assay. To conduct the assay, the gene encoding β-galactosidase was fused to the RepA gene, incorporated into commercially available plasmid pMU1550. E. coli JP3923 harboring plasmid pMU1550 was grown in minimal media (MM)/Tm([…]) in the presence of various concentrations of the small molecules under evaluation. After reaching the appropriate optical density (˜OD600=0.6), Miller units of b-galactosidase were quantitated as per the standard protocol (see Miller, J. H, Experiments in Molecular Genetics, 1972, p352-355, Cold Spring Harbor Laboratory, Cold Spring Harbor, N.Y.). Any perturbation causing lower RepA production leads to a lowering of the β-galactosidase units upon quantitation A positive control utilizing a plasmid (pMU662) that overexpresses RNAII (containing the SLI-SLIII stretch) gave the expected high b-galactosidase signal. Each experiment was performed on at least three separate occasions.
In a second control, erythromycin A, a general translation inhibitor, was tested using the reporter gene assay.
These experiments gave the expected results.
For orientation: Reporter assays use an easily measured gene product as a stand-in for the process of interest.

Experiment [2] has as its system plasmids differing in copy numbers, size and nature of replication. The conditions noted are these: cited from earlier work.
Experiment [3] deals with IncB plasmid pMU2403 encoding β-lactamase. The experiment in a line: Assessment of plasmid elimination (master/replica plating). The format is cell-based, E. coli strain JP4821. The conditions noted are these: 25 μg/mL apramycin. The procedure: The anti-plasmid effect of apramycin, paromomycin I and kanamycin B was assessed. In general, plasmid-containing E. coli resistant to ampicillin were cultured using growth media containing subinhibitory (sublethal) amounts of each of these compounds. The bacteria were allowed to reproduce for a defined number of generations, after which the bacteria were plated out onto agar plates containing the tested small molecules. Replicas were then made onto plates containing the tested small molecules and the antibiotic, ampicillin. Colonies that appeared on the master plate, but not the replicas had been rendered sensitive to ampicillin
In particular, E. coli strain JP4821 containing the commercially available IncB plasmid pMU2403, which encodes for β-lactamase, was grown in MM in the presence of 25 μg/mL apramycin for a defined number of generations. Typically, samples of the bacteria were plated out onto LB/Apra^25 plates after 10-12 generations, and replica plates were then made onto LB/Apra^25/Amp^100 plates. Percentage of plasmid lost was calculated by counting the number of colonies successfully replicated and dividing by the total number of colonies on the master plate; the entire plasmid loss assay was performed on two separate occasions. On average, greater than 200 master plate colonies were used for each of these evaluations. Evaluations of paromomycin I and kanamycin B were performed in an analogous fashion, with paromomycin I at 15 mg/mL, and kanamycin B at 10 mg/mL.
To confirm that antibiotic sensitivity was due to plasmid loss, plasmid preparations were performed to isolate plasmid from the non-replicating colonies on the master plate, and from control colonies. No plasmids were isolated from the non-replicating colonies, while plasmid was successfully isolated from the control colonies that did replicate.

The target in experiment [4] is SLI-SLIII loop-loop complex. Nature of the experiment: In vitro SLI-SLIII loop-loop disruption assay (displacement of fluorescein-labeled SLIII from bead-bound SLI). Format: binding. The conditions noted are these: biotinylated SLI on streptavidin agarose bead, fluorescein-labeled SLIII displaced; read-out: Kd for disrupting the SLI-SLIII interaction. On the procedure: To further investigate the mechanism by which apramycin causes plasmid elimination, the SLI-SLIII loop-loop interaction was reconstituted in vitro. SLI was biotinylated and bound to a streptavidin coated agarose bead. Fluorescein-labeled SLIII was added to form the loop-loop complex. This complex was then incubated with varous concentrations of apramycin and the amount of SLIII displaced by apramycin was assessed by quantitation of the fluorescence in solution. These experiments indicate that apramycin is disrupting the SLI-SLIII interaction with a Kd of 1 μM.

The subject of a further experiment is SLIII. The experiment in a line: Direct binding to fluorescein-labeled RNA (fluorescence titration). The conditions noted are these: various apramycin concentrations. The procedure:
(§1) The direct binding of apramycin to SLI and SLIII was then assessed in vitro using fluorescently-labeled RNAs.
(§2) For these experiments, RNA oligonucleotides were obtained from Dharmacon Research (Lafayette, Colo.), and were deprotected according to the manufacturer's protocol. The sequence of FI-SLI is FI.C.G.CCA.UAA.GCG.ACA.GCU.UGU.GGC. The sequence of FI-SLIII is FI.UAU.UUU.UCC.UCG.AAC.UUG.GCG.GAA.CGC.AGA.AAA.AUA. All fluorescence measurements were performed on an ISS PC1 spectrofluorometer with slitwidths and lamp current optimized for sufficient signal counts at the given RNA-fluorescein concentration. Deprotected RNA oligonucleotides were made up to 1 mM in 50 mM Tris-HCl, pH 7.3, and folded by heating to 90° C. for 3 min, then slowly cooling to rt. To assess the binding of apramycin to the fluorescently-labeled RNAs, […] of the folded RNA was transferred to a 4×10×48 mm fluorescence cuvette (Starna Cells) and allowed to equilibrate to 37° C. in the spectrofluorometer's sample chamber for 15 minutes. Apramycin was added in […] portions from a stock solution, and a minimum of 5 minutes was allotted for equilibration. Three fluorescence spectra were acquired at each apramycin concentration. The spectra were taken with a 490 nm excitation wavelength and emission intensity was measured from 510-540 nm at an interval of one nanometer. At each point along the spectrum, an average of 3 data points was taken to give an averaged intensity at that integral wavelength. In processing the spectra, the point at 523 nm was chosen as a representative wavelength to monitor change in intensity over a range of apramycin concentrations. The 523 nm data points from each of the three averaged spectra were averaged at each apramycin concentration to give a composite average of nine measurements at 523 nm at each apramycin concentration. All intensity measurements are reported uncorrected for dilutions, as volume change over the course of the experiment is minimal.

The next experiment deals with SLI. Described as above. The procedure: as §1, §2

pKd: −log10 of the molar value.

In the case of `CC[C@H]1OC(=O)[C@H](C)[C@@H](O[C@H]2C[C@@](C)(OC)[C@@H](O)[C@H](C)O2)[C@H](C)[C@@H](O[C@@H]2O[C@H](C)C[C@H](N(C)C)[C@H]2O)[C@](C)(O)C[C@@H](C)C(=O)[C@H](C)[C@@H](O)[C@]1(C)O` [Erythromycin A, erythromycin A], the “reporter gene signal (Miller units of β-galactosidase)” value (shortened to “reporter gene signal”) in experiment [1] is “no effect”.
For `N[C@@H]1[C@H]2CN(c3nc4c(cc3F)c(=O)c(C(=O)O)cn4-c3ccc(F)cc3F)C[C@@H]12` [Trovafloxacin], in experiment [2], the plasmid curing effect entry is “plasmid curing”.
One may read the pKd as the negative decadic logarithm of the Kd, by convention in mol/L. With `CN[C@@H]1[C@@H](O[C@H]2O[C@H](CO)[C@@H](N)[C@H](O)[C@H]2O)OC2C[C@@H](N)[C@@H](O[C@H]3[C@H](O)[C@@H](O)[C@H](N)C[C@@H]3N)OC2[C@@H]1O` (stereo partly drawn) [apramycin], in experiment [1], the “reporter gene signal” value is listed as “dose dependent decrease”. For the same molecule, the results for the plasmid elimination entry in experiment [3] (after 220 generations) and in experiment [3] (overall conclusion) were “virtually complete elimination” and “virtually complete elimination of plasmid”, respectively. In addition, the “sensitization of bacteria to ampicillin” value in experiment [3] (replica plates LB/Apra25/Amp100) is recorded as “sensitizes the bacteria to ampicillin”. In addition, the pKd is 6.00 in experiment [4] and 6.70 at SLI (50 mM Tris-HCl pH 7.3, 37° C., read-out: Kd of apramycin-SLI interaction). The “change in fluorescence of labeled SLIII” value with SLIII is given as “no significant change in fluorescence”. The “change in fluorescent signal of labeled SLI” value with SLI (various apramycin concentrations) is “significant decrease”.
Take `NC[C@H]1O[C@H](O[C@H]2[C@H](O)[C@@H](O[C@H]3O[C@H](CO)[C@@H](O)[C@H](N)[C@H]3O)[C@H](N)C[C@@H]2N)[C@H](N)[C@@H](O)[C@@H]1O` [kanamycin B]: the “reporter gene signal” value in experiment [1] is reported as “dose dependent decrease”.
On to `NC[C@@H]1O[C@H](O[C@H]2[C@@H](O)[C@H](O[C@@H]3[C@@H](O)[C@H](N)C[C@H](N)[C@H]3O[C@H]3O[C@H](CO)[C@@H](O)[C@H](O)[C@H]3N)O[C@@H]2CO)[C@H](N)[C@@H](O)[C@@H]1O` [paromomycin I], for which, in experiment [1], the “reporter gene signal” value is recorded as “dose dependent decrease”.

Source of the values: patent publication US20030130169A1, “Methods of treating drug-resistant bacterial infections” (priority 2001, published 2003).
